Measurements: paper PMC6394990, “Detailed characterization of the solution kinetics and thermodynamics of biotin, biocytin and HABA binding to avidin and streptavidin” (PLoS ONE, 2019)
Several values for one entry are separate records, joined by “and”; a condition that tells them apart may be missing. Equal values may be shown once. Entries after “also recorded” stand apart in the source; their conditions may differ.

Columns and labels:
[1] = Intrinsic lifetime, dynamic quantum yield and fraction of non-statically quenched molecules, unbound probe; assay type: physicochemical; settings: for t° (2), intrinsic lifetime of the fluorescence dye: in ns; for 1-S (4) = QY/F, fraction of non-statically quenched molecules / F (3) = Sat/t° / S: unbound dye
[2] = Time-resolved anisotropy, cone angle, unbound probe; assay type: physicochemical; settings: unbound dye
Protocol: The lifetimes were collected in a FluoTime100 fluorescence spectrometer (PicoQuant, GmbH, Berlin, Germany) with the excitation light source provided by a picosecond pulsed diode laser (PicoQuant, GmbH, Berlin, Germany) at 470 nm and 20 MHz. The emission was collected at 520 nm through a non-fluorescing 520 nm interference filter (Oriel Corp., Stratford, CT) followed by a liquid filter of 1cm path length containing 24 mM acetate buffered dichromate at pH 4, between the sample and detector to eliminate traces of excitation light. The fluorescence decays were fit by a nonlinear least-squares minimization based on the Marquardt algorithm embedded in the Fluofit software (PicoQuant GmbH). […] The PicoQuant G factor was calculated according to: G = ∫HV(t)dt/∫HH(t)dt, where HV(t) and HH(t) were the decays collected with the emission polarizer selecting vertical and horizontal E-vector passing orientations, respectively, and the excitation polarizer set at horizontally position. […]
(§1) In a simple model, the transition moment is assumed to wobble within a cone of semi-apical angle Ω [59], where the cone axis is normal to the surface of a sphere that corresponds to the macromolecule. The angle Ω is calculated from Eq 14.

streptavidin (SAV) = target: T1, streptavidin (SAV) (Streptomyces avidinii, UniProt P22629); assay: Fluorescence lifetimes, SAV complex; assay type: physicochemical; settings: for t (1), fluorescence lifetime: complex with SAV, t for BFl and BcO, average lifetime for B-DNAds*Fl
T1 construct: purchased Sigma Aldrich (St. Louis, MO)
T1 sequence (P22629 25-183): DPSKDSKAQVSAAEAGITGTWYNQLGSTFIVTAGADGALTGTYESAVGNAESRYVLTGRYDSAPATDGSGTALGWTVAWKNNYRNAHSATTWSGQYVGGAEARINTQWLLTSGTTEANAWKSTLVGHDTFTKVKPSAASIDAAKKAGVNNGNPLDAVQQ
Protocol: (§2) The lifetimes (τ), steady state anisotropies (rss), time-resolved anisotropies (rt) and quantum yields (QY) of the complexes (at 20 ± 0.1°C and pH 8) were collected with a dye-labeled B7 probe concentration of 20–40 nM and 1040–2080 nM of either protein (AV or SAV) to ensure that only one binding site in the tetramer was filled with a ligand (AB1 filling model).
(§3) The lifetimes were collected in a FluoTime100 fluorescence spectrometer (PicoQuant, GmbH, Berlin, Germany) with the excitation light source provided by a picosecond pulsed diode laser (PicoQuant, GmbH, Berlin, Germany) at 470 nm and 20 MHz. The emission was collected at 520 nm through a non-fluorescing 520 nm interference filter (Oriel Corp., Stratford, CT) followed by a liquid filter of 1cm path length containing 24 mM acetate buffered dichromate at pH 4, between the sample and detector to eliminate traces of excitation light. The fluorescence decays were fit by a nonlinear least-squares minimization based on the Marquardt algorithm embedded in the Fluofit software (PicoQuant GmbH). Twenty-eight decays were collected per sample, the decays were grouped in four sets, consisting of seven sample decays and one Instrument Response Function, IRF, for deconvolution proposes. The decay sets were globally fitted to mono- or bi-exponential decay models that were discriminated using the statistical parameter χ^2. The rt data were acquired with the fluorimeter described above equipped with a polarizer and an analyzer to acquire the parallel VV(t) and perpendicular VH(t) decays. The PicoQuant G factor was calculated according to: G = ∫HV(t)dt/∫HH(t)dt, where HV(t) and HH(t) were the decays collected with the emission polarizer selecting vertical and horizontal E-vector passing orientations, respectively, and the excitation polarizer set at horizontally position.

avidin (AV) [3] = target: T2, avidin (AV) (Gallus gallus, UniProt P02701); assay: Intrinsic lifetime, dynamic quantum yield and fraction of non-statically quenched molecules, AV complex; assay type: physicochemical; settings: for Dynamic Quantum Yield Φ / Fraction of Non-Statically Quenched Dye 1-S / Natural Lifetime τ°: AV complex (AB1); for 1-S (4) = QY/F, fraction of non-statically quenched molecules / F (3) = Sat/t° / S / t° (2), intrinsic lifetime of the fluorescence dye: complex with AV; for t° (2), intrinsic lifetime of the fluorescence dye: in ns
T2 construct: purchased Calbiochem (La Jolla, CA)
T2 sequence (P02701 25-152): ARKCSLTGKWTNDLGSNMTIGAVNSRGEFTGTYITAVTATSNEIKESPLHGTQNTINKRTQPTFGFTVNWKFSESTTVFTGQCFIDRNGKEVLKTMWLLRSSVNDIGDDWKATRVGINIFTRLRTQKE

avidin (AV) [4] = target: T2, avidin (AV); assay: Time-resolved anisotropy, cone angle, AV complex; assay type: physicochemical; settings: for Cone Angle Ω: AV complex (AB1), 20°C; for W: complex with AV
Protocol: as §2, §3
The r¯t values were calculated according to Eq 11 where the pre-exponential “f” corresponds to the slow phase that derives from the lifetime of the global motion (τG) which was fitted within a range of expected correlation time for the complex size; consequently, facilitating resolution of the fast correlation lifetime (τp) and the corresponding pre-exponential (1-f). r¯(t)=(1−f)∙exp(−t/τp)+f∙exp(−t/τG) (11) The f parameter was constrained to the observed rss (Eq 12) where F^(t) (Eq 13) is normalized (α1 + α2 = 1) and derived from the observed fluorescence decays of the complex. rss=0.4∫r¯(t)∙F^(t)dt (12) Where F^(t)=α1exp(−t/τ1)+α2exp(−t/τ2)/α1τ1+α2τ2 (13)
as §1

avidin (AV) [5] = target: T2, avidin (AV); assay: Dissociation (displacement/replacement) of dye-labeled biotin complexes by unlabeled B7; assay type: binding; settings: AB1; probe 20 nM, AV 260 nM; unlabeled B7 2,000 nM; 20°C
Protocol: Biotin dissociation was determined using labelled biotin (BcO and BFl) displaced by unlabeled biotin using minimally occupied and fully occupied binding sites. In the minimally occupied measurements, SAV is prepared with less than one site on average occupied by labelled biotin (AB1), using 800 nM SAV and 40 nM of BcO or BFl. For saturated SAV-labelled biotin (AB4) complexes, equimolar binding sites and labelled ligand were prepared, 40 nM SAV and 40 nM of BcO or BFl. The AB1 complexes were challenged in displacement experiments with several concentrations of unlabeled B7 (1500 nM, 1750 nM, 2000 nM and 2500 nM) at 20 ± 0.1°C. […]
The rss measurements were collected using the Giblin-Parkhurst modification of the Wampler-Desa method as described previously. The fluorescence signal was detected in a model A-1010 Alphascan fluorimeter (Photon Technologies, Inc., Birmingham, NJ) equipped with an R928 PMT (Hamamatsu, Bridgewater, NJ). […] The fluorimeter G factor was determined using a film polarizer and analyzer with an excitation at 488 nm provided by a xenon arc lamp (model A1010, Photon Technologies Inc, Princeton, NJ). The dissociation reactions of dye-labeled B7 and protein complexes were monitored by fluorescence changes and were also collected in the fluorimeter described above. […]

| SMILES | t° (2), intrinsic lifetime of the fluorescence dye [1] | 1-S (4) = QY/F, fraction of non-statically quenched molecules [1] | F (3) = Sat/t° [1] | S [1] | W [2] | t (1), fluorescence lifetime (streptavidin (SAV)) | Dynamic Quantum Yield Φ (avidin (AV) [3]) | Fraction of Non-Statically Quenched Dye 1-S (avidin (AV) [3]) | Natural Lifetime τ° (avidin (AV) [3]) | 1-S (4) = QY/F, fraction of non-statically quenched molecules (avidin (AV) [3]) | F (3) = Sat/t° (avidin (AV) [3]) | S (avidin (AV) [3]) | t° (2), intrinsic lifetime of the fluorescence dye (avidin (AV) [3]) | Cone Angle Ω (avidin (AV) [4]) | W (avidin (AV) [4]) | koff displacement / koff replacement of AV complexes (avidin (AV) [5]) | further results |
| --- | --- | --- | --- | --- | --- | --- | --- | --- | --- | --- | --- | --- | --- | --- | --- | --- | --- |
| O=C(CCCC[C@@H]1SC[C@@H]2NC(=O)N[C@@H]21)NCCNC(=O)c1ccc(-c2c3ccc(=O)cc-3oc3cc(O)ccc23)c(C(=O)O)c1 [BFl, Biotin-4-fluorescein] | 5.2 ± 0.2 | 0.65 (2×) and 0.65 ± 0.06 | 0.81 ± 0.04 | 0.35 | 90 ° | 3.69 ± 0.01 | 0.90 ± 0.02 | 0.49 ± 0.03 | 4.7 ± 0.1 | 0.49 and 0.49 ± 0.03 | 0.90 ± 0.02 | 0.51 | 4.7 ± 0.1 | 51 ± 2 degrees | 51 | could not detect neither displacement nor replacement; also recorded: could not be detected | Σαiτi (integrated lifetime) (streptavidin (SAV); SAV complex): 3.70 ± 0.05 ns; α1 (streptavidin (SAV); SAV complex): 0.61 ± 0.03; α2 (streptavidin (SAV); SAV complex): 0.39 ± 0.03; τ1 (streptavidin (SAV); SAV complex): 4.10 ± 0.02 ns; τ2 (streptavidin (SAV); SAV complex): 3.1 ± 0.02 ns; Lifetime τ (streptavidin (SAV); SAV complex, di-ionic fluorescein species): 4.1 ns and 4.1 ± 0.1 ns; Lifetime τ (streptavidin (SAV); SAV complex, mono-ionic fluorescein species): 3.0 ns and 3.0 ± 0.1 ns |
| NC(CCCCNC(=O)CCCC[C@@H]1SC[C@@H]2NC(=O)N[C@@H]21)C(=O)NCCCCCNC(=O)c1ccc(-c2c3cc(F)c(=O)cc-3oc3cc(O)c(F)cc23)c(C(=O)O)c1 (stereo partly shown) [BcO, Oregon green 488 Biocytin] | 4.4 ± 0.1 | 1 and 1.00 ± 0.02 | 0.85 ± 0.02 | 0 | 90 ° | 3.98 ± 0.01 | 0.88 ± 0.02 | 0.70 ± 0.03 | 4.9 ± 0.1 | 0.7 and 0.70 ± 0.03 | 0.88 ± 0.02 | 0.3 | 4.9 ± 0.1 | 50 ± 2 degrees | 50 | could not detect neither displacement nor replacement; also recorded: could not be detected | Lifetime τ (streptavidin (SAV); SAV complex (AB1), 20°C, pH 8): 3.98 ± 0.01 ns |
